These results are taken from patent publication US9498460B1, “Halogenated tetracyclic compounds” (KING SAUD UNIVERSITY, priority 2016, dated 2016).

Data set [1] concerns lung carcinoma cell line A549. Description: MTT growth inhibition, A549. In kind it is cell-based. The note with it: for IC50: Homo sapiens, A549, MTT test, 96-well plate, serial dilution, spread in brackets; for sensitivity of treated cancer cells, times higher: cell line printed as A459, comparator not stated. Here is the method:
(§1) Growth inhibitions were measured in 96-well plates. Aliquots of 120 μL of the suspended cells (50,000 mL^−1) were given to 60 μL of a serial dilution of the inhibitor (S). After 5 days of incubations, growths were determined the MTT assay (MTT=3-(4,5-dimethylthiazol-2-yl)-2,5-diphenyltetrazolium bromide). Briefly, 20 μl MTT (5 mg/mL in PBS) were added to each well, and the plates were incubated for 2 h at 37° C., and 5% CO2-atmosphere in the cell incubator. The supernatants were then discarded and 200 μl of isopropanol/HCl were added to each well and mixed to dissolve the formazan crystals. The absorbance was then read at 550 nm using a microplate reader (Thermo Scientific, USA). The viability of the cells was calculated by dividing the absorbance average of the treated cells by the absorbance average of the control cells multiply 100%. […] The activities of the cells were plotted against the concentration of the drugs, and the IC50 values were calculated from the regression curve.
(§2) The cancer cell lines were incubated with serial dilution of each compound (from 313 pg ML^−1 to 5 mg ML^−1) in a 96-well plate for 4 days, and then tested for growth inhibition by MTT-Test.
(In general: Tetrazolium dyes change colour on reduction, which living cells bring about.)

The subject of data set [2] is colorectal carcinoma HTC-116 cell line. Put plainly: MTT growth inhibition, HTC-116 (HCT 116). In kind it is cell-based. Particulars: for IC50: Homo sapiens, HCT-116, MTT test, 96-well plate, serial dilution, spread in brackets; for growth inhibition of third cell line (HCT): result in words. Here is the method:
as §1
The cancer cell lines were incubated with serial dilution of each compound (from 313 pg ML^−1 to 5 mg ML^−1) in a 96-well plate for 4 days, and then tested for growth inhibition by MTT-Test. […] Replacing the formyl groups of the two compounds with amino groups (Sub. 6 and Sub. 7) caused remarkable decreasing of cells sensitivities, and accordingly increasing of IC50 values of the two derivatives as shown in table 2. […] Moreover, the sensitivities of the treated cancer cells to 4 and 5 were 6 times higher in case of the […] cell line A459, and even 40 times higher in case of hepatocyte carcinoma cell line HepG2.

The subject of data set [3] is hepatocellular carcinoma HepG2 cell line. Description: MTT growth inhibition, HepG2. In kind it is cell-based. Particulars: for IC50: Homo sapiens, MTT test, 96-well plate, serial dilution, spread in brackets; for sensitivity of treated cancer cells, times higher: comparator not stated. Here is the method: as §1, §2
Data set [4] concerns Burkitts Lymphoma (BL) cell lines DG-75. The note with it: does not involve caspases, DNA fragmentation or PARP cleavage; cited from earlier work.

Converted amounts (≈) assume the structure as drawn.

A word on the IC50: it is the concentration needed to halve the response being measured. High values mean weaker potency in that assay, low ones greater potency in that assay. Turning to `O=CC1CC2c3c(Cl)cccc3C1c1cccc(Cl)c12` (stereo not shown) [Compound 5, 1,8-dichloro-9,10-dihydro-9,10-ethanoanthracene-11-carbaldehyde], the values for the IC50 in data set [1], in data set [2] and in data set [3] were 3.71 µg/mL (≈ 12.2 µM), 0.7 µg/mL (≈ 2.31 µM) and 0.65 µg/mL (≈ 2.14 µM), respectively. Also, the “sensitivity of treated cancer cells, times higher” value (shortened to “sensitivity”) in data set [1] was found to be 6 times; in data set [3] it was 40 times. In addition, in data set [2], the “growth inhibition of third cell line (HCT)” value is recorded as “able to inhibit the growth”.
The melting point is the temperature of the solid-liquid transition. As to `CNCC1CC2c3cccc(Cl)c3C1c1c(Cl)cccc12` (stereo not shown) [Compound 6, 1-(4,5-dichloro-9,10-dihydro-9,10-ethanoanthracen-11-yl)-N-methylmethanamine], the melting point was 290 °C. For the same compound, the 50% inhibitory concentration (IC50) in data set [1] is 25.5 µg/mL (≈ 80.1 µM). The same compound yielded an IC50 in data set [3] of 12.7 µg/mL (≈ 39.8 µM).
For `CNCC1CC2c3c(Cl)cccc3C1c1cccc(Cl)c12` (stereo not shown) [Compound 7, 1-(1,8-dichloro-9,10-dihydro-9,10-ethanoanthracen-11-yl)-N-methylmethanamine], the melting point is 310 °C. In addition, the half-inhibitory concentration (IC50) in data set [1] came to 18.9 µg/mL (≈ 59.4 µM). Moreover, in data set [3], the IC50 turned out to be 13.8 µg/mL (≈ 43.4 µM).
In the case of `O=CC1CC2c3cccc(Cl)c3C1c1c(Cl)cccc12` (stereo not shown) [Compound 4, 4,5-dichloro-9,10-dihydro-9,10-ethanoanthracene-11-carbaldehyde], in data set [1], the IC50 came to 1.1 µg/mL (≈ 3.63 µM) and the “sensitivity” value came to 6 times. In data set [2], the concentration for half-maximal inhibition (IC50) amounted to 0.4 µg/mL (≈ 1.32 µM) and the “growth inhibition of third cell line (HCT)” value is recorded as “able to inhibit the growth”. For the same compound, in data set [3], the midpoint of inhibition, the IC50, lay at 0.12 µg/mL (≈ 0.396 µM) and the “sensitivity” value amounted to 40 times.
With `CNCCCC12CCC(c3ccccc31)c1ccccc12` [Maprotiline, 9,10-dihydro-N-methyl-9,10-ethanoanthracene-9-propanamine], in data set [4], the “in vitro antiproliferative activity against DG-75” value is “antiproliferative agent”.
